Reference: ChEMBL document CHEMBL5096216, “Rational Design, Synthesis, and Biological Evaluation of Novel S1PR2 Antagonists for Reversing 5-FU-Resistance in Colorectal Cancer” (J Med Chem, 2022)

Columns and labels:
[1] = biological target: Sphingosine 1-phosphate receptor 2 (Homo sapiens, UniProt O95136); assay: Binding affinity to S1PR2 (unknown origin) assessed as dissociation constant by surface plasmon resonance analysis
[2] = biological target: Sphingosine 1-phosphate receptor 3 (Homo sapiens, UniProt Q99500); assay: Binding affinity to S1PR3 (unknown origin) assessed as dissociation constant by surface plasmon resonance analysis
[3] = Cytotoxicity against human NCM460 cells assessed as reduction in cell viability incubated for 48 hrs by MTT assay; type: toxicity, cell-based
HCT-116 [4] = assay: Antiproliferative activity against human HCT-116 cells overexpressing DPD assessed as reduction in cell viability incubated for 48 hrs by MTT assay; type: functional, cell-based; details: HCT-116, 48 h
[5] = biological target: T1, Sphingosine 1-phosphate receptor 4 (Homo sapiens, UniProt O95977); assay: Binding affinity to S1PR4 (unknown origin) assessed as dissociation constant by surface plasmon resonance analysis
T1 sequence (O95977 whole entry): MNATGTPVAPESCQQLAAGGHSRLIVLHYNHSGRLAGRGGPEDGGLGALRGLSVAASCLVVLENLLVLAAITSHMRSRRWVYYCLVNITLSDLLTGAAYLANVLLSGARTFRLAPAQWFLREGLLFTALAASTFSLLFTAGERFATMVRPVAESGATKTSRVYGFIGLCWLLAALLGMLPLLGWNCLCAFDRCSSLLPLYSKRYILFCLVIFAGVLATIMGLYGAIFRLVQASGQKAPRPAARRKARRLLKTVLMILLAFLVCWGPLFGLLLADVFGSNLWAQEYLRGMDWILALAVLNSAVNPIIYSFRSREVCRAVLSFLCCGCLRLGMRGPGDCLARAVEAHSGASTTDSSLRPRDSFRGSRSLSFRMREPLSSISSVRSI

SW620/5-FU [6] = assay: Antiproliferative activity against human SW620/5-FU cells assessed as reduction in cell viability incubated for 48 hrs by MTT assay; type: functional, cell-based
HT-29 [7] = assay: Reversal of 5-FU resistance in human HT-29 cells assessed as reduction in cell viability incubated for 48 hrs in presence of 5-FU by MTT assay; type: functional, cell-based; details: HT-29, 48 h; note: test concentration or dose not given here
HCT-116 [8] = assay: Reversal of 5-FU resistance in human HCT-116 cells overexpressing DPD assessed as reduction in cell viability incubated for 48 hrs in presence of 5-FU by MTT assay; type: functional, cell-based; details: HCT-116, 48 h; note: test concentration or dose not given here
[9] = biological target: Sphingosine 1-phosphate receptor 1 (Homo sapiens, UniProt P21453); assay: Binding affinity to S1PR1 (unknown origin) assessed as dissociation constant by surface plasmon resonance analysis
HT-29 [10] = assay: Antiproliferative activity against human HT-29 cells assessed as reduction in cell viability incubated for 48 hrs by MTT assay; type: functional, cell-based; details: HT-29, 48 h
NCM460 = assay: Cytotoxicity against human NCM460 cells assessed as reduction in cell viability incubated for 48 hrs in presence of 5-FU by MTT assay; type: functional, cell-based; details: NCM460, 48 h
SW620/5-FU [11] = assay: Reversal of 5-FU resistance in human SW620/5-FU cells assessed as reduction in cell viability incubated for 48 hrs in presence of 5-FU by MTT assay; type: functional, cell-based; note: test concentration or dose not given here
[12] = biological target: Sphingosine 1-phosphate receptor 5 (Homo sapiens, UniProt Q9H228); assay: Binding affinity to S1PR5 (unknown origin) assessed as dissociation constant by surface plasmon resonance analysis
Chain of Sphingosine 1-phosphate receptor 5 (Q9H228 whole entry): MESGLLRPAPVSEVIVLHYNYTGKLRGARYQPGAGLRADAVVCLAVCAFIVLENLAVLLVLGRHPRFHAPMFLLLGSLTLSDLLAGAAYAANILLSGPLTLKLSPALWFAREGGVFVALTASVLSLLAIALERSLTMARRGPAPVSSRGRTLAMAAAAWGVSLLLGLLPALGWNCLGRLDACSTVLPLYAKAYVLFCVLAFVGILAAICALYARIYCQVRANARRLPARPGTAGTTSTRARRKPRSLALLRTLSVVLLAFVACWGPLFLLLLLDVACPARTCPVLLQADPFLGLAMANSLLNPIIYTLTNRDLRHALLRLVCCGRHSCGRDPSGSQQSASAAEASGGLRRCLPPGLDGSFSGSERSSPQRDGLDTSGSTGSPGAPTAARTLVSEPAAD

Chain of Sphingosine 1-phosphate receptor 2 (O95136 whole entry): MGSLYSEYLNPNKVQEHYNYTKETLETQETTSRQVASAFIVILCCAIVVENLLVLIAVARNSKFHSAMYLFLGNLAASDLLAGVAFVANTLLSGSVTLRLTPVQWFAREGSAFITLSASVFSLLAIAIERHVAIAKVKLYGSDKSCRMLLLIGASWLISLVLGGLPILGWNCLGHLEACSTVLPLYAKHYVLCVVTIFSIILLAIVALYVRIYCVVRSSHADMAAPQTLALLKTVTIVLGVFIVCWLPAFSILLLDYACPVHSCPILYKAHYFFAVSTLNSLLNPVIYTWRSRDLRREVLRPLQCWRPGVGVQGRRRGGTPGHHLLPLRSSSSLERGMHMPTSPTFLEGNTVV
Chain of Sphingosine 1-phosphate receptor 3 (Q99500 whole entry): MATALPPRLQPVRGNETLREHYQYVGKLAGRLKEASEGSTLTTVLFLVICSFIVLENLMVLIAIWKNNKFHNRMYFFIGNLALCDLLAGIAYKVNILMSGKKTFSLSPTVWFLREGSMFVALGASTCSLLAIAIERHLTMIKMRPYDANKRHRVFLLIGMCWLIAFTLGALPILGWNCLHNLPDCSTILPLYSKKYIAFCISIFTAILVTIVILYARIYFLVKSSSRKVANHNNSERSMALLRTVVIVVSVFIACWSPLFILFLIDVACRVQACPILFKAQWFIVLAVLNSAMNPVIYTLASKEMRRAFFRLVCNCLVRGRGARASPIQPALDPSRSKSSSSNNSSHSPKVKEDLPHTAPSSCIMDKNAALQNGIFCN
Chain of Sphingosine 1-phosphate receptor 1 (P21453 whole entry): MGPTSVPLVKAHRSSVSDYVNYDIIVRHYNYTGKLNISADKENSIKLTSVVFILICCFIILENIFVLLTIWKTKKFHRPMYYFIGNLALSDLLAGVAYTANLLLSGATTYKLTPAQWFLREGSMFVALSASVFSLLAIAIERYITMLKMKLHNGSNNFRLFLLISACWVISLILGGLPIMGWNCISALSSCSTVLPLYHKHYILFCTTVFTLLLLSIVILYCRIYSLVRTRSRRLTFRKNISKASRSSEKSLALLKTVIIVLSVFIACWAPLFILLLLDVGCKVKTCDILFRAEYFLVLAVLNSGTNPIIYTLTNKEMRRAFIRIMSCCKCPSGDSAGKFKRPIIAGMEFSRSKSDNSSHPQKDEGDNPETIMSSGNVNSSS

| Compound | Kd [1] | also measured |
| --- | --- | --- |
| CCC(CC)CC1(O)CCN(C(=O)Nc2cc(Oc3ccc(F)cc3)cc(Oc3ccc(C(=O)N(C)C)cc3)c2)CC1 | 6.62 nM |  |
| CCC(CC)CN1CCN(C(=O)Nc2cc(Oc3ccc(F)cc3)cc(Oc3ccc(C(N)=O)cc3)c2)CC1 | 88.5 nM |  |
| C#CCNC(=O)c1ccc(Oc2cc(NC(=O)N3CCN(CC(CC)CC)CC3)cc(Oc3ccc(F)cc3)c2)cc1 | > 1000 nM |  |
| O=C(Nc1cc(Cl)nc(Cl)c1)Nc1cc(Cl)nc(Cl)c1 | 13.2 nM |  |
| CCC(CC)CN1CC2CN(C(=O)Nc3cc(Oc4ccc(F)cc4)cc(Oc4ccc(C(=O)NC)cc4)c3)CC2C1 (stereo unspecified) | > 1000 nM |  |
| CNC(=O)c1ccc(Oc2cc(NC(=O)N3CCN(C(=O)Cc4cccc(OC)c4)CC3)cc(Oc3ccc(F)cc3)c2)cc1 | > 1000 nM |  |
| CNC(=O)c1ccc(Oc2cc(NC(=O)N3CCN(c4ccc(Cl)cc4)CC3)cc(Oc3ccc(F)cc3)c2)cc1 | > 1000 nM |  |
| CCC(CC)CC1(O)CCN(C(=O)Nc2cc(Oc3ccncc3)cc(Oc3ccc(F)cc3)c2)CC1 | 0.98 nM | Kd [2]: > 100 nM; IC50 at 48 hrs [3]: > 100 µM; IC50 (HCT-116 [4]): 49.2 µM; Kd [5]: > 100 nM; IC50 (SW620/5-FU [6]): 18.7 µM; IC50 (HT-29 [7]): 8.56 µM; IC50 (HCT-116 [8]): 2160 nM; Kd [9]: > 100 nM; IC50 (HT-29 [10]): 55.4 µM; IC50 (NCM460): > 100 µM; IC50 (SW620/5-FU [11]): 2940 nM; Kd [12]: > 100 nM |
| CCC(CC)CC1(O)CCN(C(=O)Nc2cc(Oc3ccc(F)cc3)cc(Oc3ccc(C(N)=O)cc3)c2)CC1 | 198 nM |  |
| CCC(CC)CC1(O)CCN(C(=O)Nc2cc(Oc3ccc(F)cc3)cc(Oc3ccc(C(=O)NC)cc3)c2)CC1 | 4.15 nM |  |
| O=C(Nc1cc(Oc2ccncc2)cc(Oc2ccc(F)cc2)c1)N1CCC(O)(c2ccc(Cl)cc2)CC1 | 66.9 nM |  |
| CCC(CC)CC1(O)CCN(C(=O)Nc2cc(Oc3ccc(F)cc3)cc(Oc3ccc(S(N)(=O)=O)cc3)c2)CC1 | > 1000 nM |  |
| CNC(=O)c1ccc(Oc2cc(NC(=O)N3CCN(c4ccc(C(F)(F)F)cc4)CC3)cc(Oc3ccc(F)cc3)c2)cc1 | > 1000 nM |  |

Further lines, with some results ahead:

| Kd [1] | Compound | also measured |
| --- | --- | --- |
| > 1000 nM | CCC(CC)CN1CCN(C(=O)Nc2cc(Oc3ccc(F)cc3)cc(Oc3ccc(C(=O)N4CCCCC4)cc3)c2)CC1 |  |
| > 1000 nM | CCC(CC)CN1CCN(C(=O)Nc2cc(Oc3ccc(F)cc3)cc(Oc3ccc(C(=O)OC)cc3)c2)CC1 |  |
| > 1000 nM | CCC(CC)CN1CCN(C(=O)Nc2cc(Oc3ccc(F)cc3)cc(Oc3ccc(C(=O)N4CCOCC4)cc3)c2)CC1 |  |
| 21.5 nM | CNC(=O)c1ccc(Oc2cc(NC(=O)N3CCN(c4ccc(OC)cc4)CC3)cc(Oc3ccc(F)cc3)c2)cc1 |  |
| 1.15 nM | CNC(=O)c1ccc(Oc2cc(NC(=O)N3CCN(C(=O)OC(C)(C)C)CC3)cc(Oc3ccc(F)cc3)c2)cc1 |  |
| 12.7 nM | CCC(CC)CN1CCN(C(=O)Nc2cc(Oc3ccc(F)cc3)cc(Oc3ccc(C(=O)NC4CCCCC4)cc3)c2)CC1 |  |
